# Assay results published in patent publication US20110070232A1, “Combination Therapy with an Antitumor Alkaloid” (Pharma Mar, S.A., priority 2008, published 2011).
# Where “and” joins values, the source holds several entries; their conditions need not be identical. Equal values may be shown once. Read-outs that look alike come from different tables or passages of the source.
# Tests used:
# Format in all cases: in vivo, mice
# PLC/PRF/5 tumors = system: PLC/PRF/5 tumors
# Description: (§1) Female athymic nude mice (Harlan Sprague Dawley, Madison, Wis.) were utilized for all experiments. Animals were housed in ventilated rack caging with food and water ad libitum. The mice were acclimated for at least 5 days prior to tumor implantation with a tumor cell suspension.
# The tumor model used in these studies was PLC/PRF/5 cell line, which was obtained from the ATCC (Manassas, Va.).
# PLC/PRF/5 were grown in Eagle's minimum essential medium supplemented with 10% FBS and 1% L-glutamine. Each animal was implanted SC on the right flank, using a 13G trochar and 1 mL syringe, with 5×10^6 PLC/PRF/5 cells in a 0.2 mL suspension of 50% Matrigel and 50% serum free MEM medium, without antibiotics. Bacterial cultures were performed on aliquots of the cells prepared for implantation.
# Treatments were initiated on DPI 14.
# (§2) Tumor size measurements were recorded twice weekly from the treatment initiation until the termination of the study.
# (§3) Mean, standard deviation and standard error of the mean were determined for tumor volume for all animal groups at all assessments. Student's t test was performed on tumor volumes at each measurement day, including at the end of the study, to determine whether there were any statistically significant differences between combination treatment groups and single monotherapy treatment groups.
# HepG2 tumors = system: HepG2 tumors
# Description: as §1
# The tumor model used in these studies was HepG2 cell line, which was obtained from the ATCC (Manassas, Va.).
# HepG2 cells were grown in MEM supplemented with 10% FBS, 1.5 g/L sodium bicarbonate, 0.1 mM non-essential amino acids, 1.0 mM sodium pyruvate, and 2 mM L-glutamine. Each animal was implanted SC on the right flank, using a 13G trochar, with 5×10^6 HepG2 cells in a 0.2 mL suspension of 50% Matrigel and 50% serum free medium, without antibiotics. Bacterial cultures were performed on aliquots of the cells prepared for implantation.
# Treatments were initiated on DPI 19.
# as §2, §3
# NCI-H460 tumors = conditions: for % Inhibition: PM00104 0.9 mg/kg/day, single agents and combination, r5-r13 = day 9,13,16,21,24,27,30,38,41
# Description: Female athymic nude mice (Harlan Sprague Dawley, Madison, Wis.) were utilized for all experiments. Animals were housed in ventilated rack caging with food and water ad libitum. The mice were acclimated for at least 5 days prior to tumor implantation.
# The tumor model used in this study was NCI-H460 cell line which is a human NSCLC cell line obtained from the ATCC (Manassas, Va.). […] Cells from in vitro passage 7 were implanted SC into study mice using a 1 ml syringe with a 13G trocar: 5×10^6 cells/mouse in 0.2 ml 50% Matrigel/50% RPMI medium of NCI-H460 without serum or antibiotics. Bacterial culture was taken on cells used to implant the study.
# Treatments were initiated on DPI 9.
# Tumor size measurements were recorded 2-3 times/week from the treatment initiation until the termination of the study.
# as §3
# [1] = day 14, PM00104 0.90, sorafenib 60 mg/kg/day
# [2] = day 18, PM00104 0.90, sorafenib 60 mg/kg/day
# [3] = day 22, PM00104 0.90, sorafenib 60 mg/kg/day
# [4] = day 25, PM00104 0.90, sorafenib 60 mg/kg/day
# [5] = day 28, PM00104 0.90, sorafenib 60 mg/kg/day
# [6] = day 32, PM00104 0.90, sorafenib 60 mg/kg/day
# [7] = day 35, PM00104 0.90, sorafenib 60 mg/kg/day
# [8] = day 39, PM00104 0.90, sorafenib 60 mg/kg/day
# [9] = day 42, PM00104 0.90, sorafenib 60 mg/kg/day
# [10] = day 19, PM00104 0.60, sorafenib 60 mg/kg/day
# [11] = day 19, PM00104 0.90, sorafenib 60 mg/kg/day
# [12] = day 22, PM00104 0.60, sorafenib 60 mg/kg/day
# [13] = day 26, PM00104 0.60, sorafenib 60 mg/kg/day
# [14] = day 26, PM00104 0.90, sorafenib 60 mg/kg/day
# [15] = day 30, PM00104 0.60, sorafenib 60 mg/kg/day
# [16] = day 30, PM00104 0.90, sorafenib 60 mg/kg/day
# [17] = day 33, PM00104 0.60, sorafenib 60 mg/kg/day
# [18] = day 33, PM00104 0.90, sorafenib 60 mg/kg/day
# [19] = PM00104 0.9 mg/kg/day IV and/or Bevacizumab 5 mg/kg/day IP
smiles,measurement,setting,value
COc1c(C)cc2c(c1O)[C@@H]1[C@@H]3Cc4c(OC(C)=O)c(C)c5c(c4[C@H](CNC(=O)/C=C/c4cccc(C(F)(F)F)c4)N3[C@@H](O)[C@H](C2)N1C)OCO5 [PM00104],% T/C,"PLC/PRF/5 tumors; day 14, PM00104 0.45, sorafenib 60 mg/kg/day",106.5%
same,% Inhibition,PLC/PRF/5 tumors; [1],−0.8%
same,% T/C,PLC/PRF/5 tumors; [1],100.8%
same,% T/C,"PLC/PRF/5 tumors; day 18, PM00104 0.45, sorafenib 60 mg/kg/day",71.1%
same,% Inhibition,PLC/PRF/5 tumors; [2],21.2%
same,% T/C,PLC/PRF/5 tumors; [2],78.8%
same,% T/C,"PLC/PRF/5 tumors; day 22, PM00104 0.45, sorafenib 60 mg/kg/day",73.5%
same,% Inhibition,PLC/PRF/5 tumors; [3],33.3%
same,% T/C,PLC/PRF/5 tumors; [3],66.7%
same,% T/C,"PLC/PRF/5 tumors; day 25, PM00104 0.45, sorafenib 60 mg/kg/day",80.4%
same,% Inhibition,PLC/PRF/5 tumors; [4],29.0%
same,% T/C,PLC/PRF/5 tumors; [4],71.0%
same,% T/C,"PLC/PRF/5 tumors; day 28, PM00104 0.45, sorafenib 60 mg/kg/day",67.3%
same,% Inhibition,PLC/PRF/5 tumors; [5],47.1%
same,% T/C,PLC/PRF/5 tumors; [5],52.9%
same,% T/C,"PLC/PRF/5 tumors; day 32, PM00104 0.45, sorafenib 60 mg/kg/day",79.7%
same,% Inhibition,PLC/PRF/5 tumors; [6],54.4%
same,% T/C,PLC/PRF/5 tumors; [6],45.6%
same,% T/C,"PLC/PRF/5 tumors; day 35, PM00104 0.45, sorafenib 60 mg/kg/day",71.7%
same,% Inhibition,PLC/PRF/5 tumors; [7],45.1%
same,% T/C,PLC/PRF/5 tumors; [7],54.9%
same,% T/C,"PLC/PRF/5 tumors; day 39, PM00104 0.45, sorafenib 60 mg/kg/day",89.2%
same,% Inhibition,PLC/PRF/5 tumors; [8],22.9%
same,% T/C,PLC/PRF/5 tumors; [8],77.1%
same,% T/C,"PLC/PRF/5 tumors; day 42, PM00104 0.45, sorafenib 60 mg/kg/day",85.7%
same,% Inhibition,PLC/PRF/5 tumors; [9],29.9%
same,% T/C,PLC/PRF/5 tumors; [9],70.1%
same,% Inhibition,"HepG2 tumors; day 19, PM00104 0.60, sorafenib 30 mg/kg/day",8.4%
same,% Inhibition,HepG2 tumors; [10],8.4%
same,% T/C,HepG2 tumors; [10],91.6%
same,% Inhibition,"HepG2 tumors; day 19, PM00104 0.90, sorafenib 30 mg/kg/day",8.5%
same,% Inhibition,HepG2 tumors; [11],8.5%
same,% T/C,HepG2 tumors; [11],91.5%
same,% Inhibition,"HepG2 tumors; day 22, PM00104 0.60, sorafenib 30 mg/kg/day",28.1%
same,% Inhibition,HepG2 tumors; [12],28.1%
same,% T/C,HepG2 tumors; [12],71.9%
same,% Inhibition,"HepG2 tumors; day 22, PM00104 0.90, sorafenib 30 mg/kg/day",40.3%
same,% Inhibition,HepG2 tumors; [3],40.3%
same,% T/C,HepG2 tumors; [3],59.7%
same,% Inhibition,"HepG2 tumors; day 26, PM00104 0.60, sorafenib 30 mg/kg/day",48.3%
same,% Inhibition,HepG2 tumors; [13],48.3%
same,% T/C,HepG2 tumors; [13],51.7%
same,% Inhibition,"HepG2 tumors; day 26, PM00104 0.90, sorafenib 30 mg/kg/day",59.5%
same,% Inhibition,HepG2 tumors; [14],59.5%
same,% T/C,HepG2 tumors; [14],40.5%
same,% Inhibition,"HepG2 tumors; day 30, PM00104 0.60, sorafenib 30 mg/kg/day",59.2%
same,% Inhibition,HepG2 tumors; [15],59.2%
same,% T/C,HepG2 tumors; [15],40.8%
same,% Inhibition,"HepG2 tumors; day 30, PM00104 0.90, sorafenib 30 mg/kg/day",76.1%
same,% Inhibition,HepG2 tumors; [16],76.1%
same,% T/C,HepG2 tumors; [16],23.9%
same,% Inhibition,"HepG2 tumors; day 33, PM00104 0.60, sorafenib 30 mg/kg/day",62.4%
same,% Inhibition,HepG2 tumors; [17],62.4%
same,% T/C,HepG2 tumors; [17],37.6%
same,% Inhibition,"HepG2 tumors; day 33, PM00104 0.90, sorafenib 30 mg/kg/day",73.0%
same,% Inhibition,HepG2 tumors; [18],73.0%
same,% T/C,HepG2 tumors; [18],27.0%
same,% T/C on day 9,NCI-H460 tumors; [19],96.3%
same,% T/C on day 13,NCI-H460 tumors; [19],97.8%
same,% T/C on day 16,NCI-H460 tumors; [19],75.9%
same,% T/C on day 21,NCI-H460 tumors; [19],73.2%
same,% T/C on day 24,NCI-H460 tumors; [19],66.8%
same,% T/C on day 27,NCI-H460 tumors; [19],43.8%
same,% T/C on day 30,NCI-H460 tumors; [19],45.1%
same,% T/C on day 38,NCI-H460 tumors; [19],125.1%
same,% T/C on day 41,NCI-H460 tumors; [19],132.5%
same,% Inhibition,NCI-H460 tumors; bevacizumab 5 mg/kg/day,24.1% and 33.2%
same,% Inhibition,NCI-H460 tumors; temsirolimus 10 mg/kg/day,24.1% and 33.2%
same,% Inhibition,NCI-H460 tumors; temsirolimus 20 mg/kg/day,24.1% and 33.2%
